Bounds are passed on as bounds.

The IC50 is the concentration at which inhibition is half-maximal.

For the first test, the target named is human recombinant GPR65 (Homo sapiens, UniProt Q8IYL9). Put plainly: Human GPR65 cAMP HTRF antagonist assay. Format: cell-based.
human recombinant GPR65, sequence (Q8IYL9 whole entry): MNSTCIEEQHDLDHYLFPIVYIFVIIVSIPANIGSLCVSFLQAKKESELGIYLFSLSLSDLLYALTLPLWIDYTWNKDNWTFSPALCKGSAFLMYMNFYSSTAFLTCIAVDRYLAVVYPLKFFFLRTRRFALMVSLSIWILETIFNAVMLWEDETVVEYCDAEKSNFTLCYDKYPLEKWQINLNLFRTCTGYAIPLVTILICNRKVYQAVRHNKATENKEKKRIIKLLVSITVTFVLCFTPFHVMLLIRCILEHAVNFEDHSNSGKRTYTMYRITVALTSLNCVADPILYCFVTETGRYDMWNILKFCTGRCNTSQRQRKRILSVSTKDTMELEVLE
Conditions: not given
In a few lines: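 1321N1 astrocytoma cells stably expressing hrGPR65, with IBMX and EDTA, were preincubated with compound 30 min at room temperature, then acid-activated at assay pH 7.2 (control pH 7.9) for 30 min. cAMP read by HTRF (665/620 nm ratio); IC50 from 4-parameter fit normalised to high/low controls.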
A general note: Time-resolved FRET reads energy transfer from a long-lived donor to a nearby acceptor.
For `COc1cc(-c2cc(F)c(NC(=O)N3[C@H]4CC[C@@H]3c3c[nH]c(=O)cc3C4)cc2Cl)ccn1` [Compound 265, (6S,9R)-N-(5-Chloro-2-fluoro-4-(2-methoxypyridin-4-yl)phenyl)-3-oxo-3,5,6,7,8,9-hexahydro-2H-6,9-epiminocyclohepta[c]pyridine-10-carboxamide], the IC50 is under 500 nM.

For `O=C(Nc1cc(Cl)c(-c2ccnc(F)c2)cc1F)N1[C@H]2CC[C@@H]1c1n[nH]c(=O)cc1C2` [Compound 266, (6S,9R)-N-(5-Chloro-2-fluoro-4-(2-fluoropyridin-4-yl)phenyl)-3-oxo-3,5,6,7,8,9-hexahydro-2H-6,9-epiminocyclohepta[c]pyridazine-10-carboxamide], the IC50 was under 500 nM.

On to `O=C(Nc1cc(Cl)c(-c2ccnc(F)c2)cc1F)N1[C@H]2CC[C@@H]1c1c[nH]c(=O)cc1C2` [Compound 267, (6S,9R)-N-(5-Chloro-2-fluoro-4-(2-fluoropyridin-4-yl)phenyl)-3-oxo-3,5,6,7,8,9-hexahydro-2H-6,9-epiminocyclohepta[c]pyridine-10-carboxamide], for which the IC50 is under 500 nM.

In the case of `O=C(Nc1cc(Cl)c(-c2ccnc(F)c2)cc1F)N1[C@H]2CC[C@@H]1c1ccnc(F)c1C2` [Compound 268, (5R,8S)-N-(5-Chloro-2-fluoro-4-(2-fluoropyridin-4-yl)phenyl)-1-fluoro-6,7,8,9-tetrahydro-5H-5,8-epiminocyclohepta[c]pyridine-10-carboxamide], the IC50 was under 500 nM.

Consider `O=C(Nc1cc(C(F)(F)F)c(-c2cnc3nonc3c2)cc1F)N1[C@H]2CC[C@@H]1c1n[nH]c(=O)cc1C2` [Compound 269, (6S,9R)-N-(4-([1,2,5]Oxadiazolo[3,4-b]pyridin-6-yl)-2-fluoro-5-(trifluoromethyl)phenyl)-3-oxo-3,5,6,7,8,9-hexahydro-2H-6,9-epiminocyclohepta[c]pyridazine-10-carboxamide], for which the IC50 was under 500 nM.

With `O=C(Nc1cc(Cl)c(-c2ccc3csnc3c2)cc1F)N1[C@H]2CC[C@@H]1c1n[nH]c(=O)cc1C2` [Compound 270, (6S,9R)-N-(4-(Benzo[c]isothiazol-6-yl)-5-chloro-2-fluorophenyl)-3-oxo-3,5,6,7,8,9-hexahydro-2H-6,9-epiminocyclohepta[c]pyridazine-10-carboxamide], the IC50 is under 500 nM.

In the case of `CCOc1ccc(-c2cc(F)c(NC(=O)N3[C@H]4CC[C@@H]3c3c[nH]c(=O)cc3C4)cc2Cl)cn1` [Compound 272, (6S,9R)-N-(5-Chloro-4-(6-ethoxypyridin-3-yl)-2-fluorophenyl)-3-oxo-3,5,6,7,8,9-hexahydro-2H-6,9-epiminocyclohepta[c]pyridine-10-carboxamide], the concentration for half-maximal inhibition (IC50) was under 500 nM.

With `CC(C)Oc1ccc(-c2cc(F)c(NC(=O)N3[C@H]4CC[C@@H]3c3c[nH]c(=O)cc3C4)cc2Cl)cn1` [Compound 273, (6S,9R)-N-(5-Chloro-2-fluoro-4-(6-isopropoxypyridin-3-yl)phenyl)-3-oxo-3,5,6,7,8,9-hexahydro-2H-6,9-epiminocyclohepta[c]pyridine-10-carboxamide], the IC50 was under 500 nM.

For `CC(C)Oc1ccc(-c2cc(F)c(NC(=O)N3[C@H]4CC[C@@H]3c3ccnc(F)c3C4)cc2Cl)cn1` [Compound 274, (5R,8S)-N-(5-Chloro-2-fluoro-4-(6-isopropoxypyridin-3-yl)phenyl)-1-fluoro-6,7,8,9-tetrahydro-5H-5,8-epiminocyclohepta[c]pyridine-10-carboxamide], the IC50 is under 500 nM.

Take `O=C(Nc1cc(Cl)c(-c2ccc(OC3COC3)nc2)cc1F)N1[C@H]2CC[C@@H]1c1n[nH]c(=O)cc1C2` [Compound 275, (6S,9R)-N-(5-Chloro-2-fluoro-4-(6-(oxetan-3-yloxy)pyridin-3-yl)phenyl)-3-oxo-3,5,6,7,8,9-hexahydro-2H-6,9-epiminocyclohepta[c]pyridazine-10-carboxamide]: the concentration for half-maximal inhibition (IC50) was under 500 nM.

Turning to `O=C(Nc1cc(Cl)c(-c2cnc3nsnc3c2)cc1F)N1[C@H]2CC[C@@H]1c1n[nH]c(=O)cc1C2` [Compound 277, (6S,9R)-N-(4-([1,2,5]Thiadiazolo[3,4-b]pyridin-6-yl)-5-chloro-2-fluorophenyl)-3-oxo-3,5,6,7,8,9-hexahydro-2H-6,9-epiminocyclohepta[c]pyridazine-10-carboxamide], the half-maximal inhibitory concentration (IC50) was under 500 nM.

For the molecule `COCc1ccc(-c2cc(F)c(NC(=O)N3[C@H]4CC[C@@H]3c3n[nH]c(=O)cc3C4)cc2Cl)cn1` [Compound 278, (6S,9R)-N-(5-Chloro-2-fluoro-4-(6-(methoxymethyl)pyridin-3-yl)phenyl)-3-oxo-3,5,6,7,8,9-hexahydro-2H-6,9-epiminocyclohepta[c]pyridazine-10-carboxamide], the 50% inhibitory concentration (IC50) was under 500 nM.

As to `O=C(Nc1cc(Cl)c(-c2cnc(F)c(F)c2)cc1F)N1[C@H]2CC[C@@H]1c1n[nH]c(=O)cc1C2` [Compound 279, (6S,9R)-N-(5-Chloro-4-(5,6-difluoropyridin-3-yl)-2-fluorophenyl)-3-oxo-3,5,6,7,8,9-hexahydro-2H-6,9-epiminocyclohepta[c]pyridazine-10-carboxamide], the 50% inhibitory concentration (IC50) is under 500 nM.

Regarding `COc1ncc(-c2cc(F)c(NC(=O)N3[C@H]4CC[C@@H]3c3n[nH]c(=O)cc3C4)cc2Cl)cn1` [Compound 281, (6S,9R)-N-(5-Chloro-2-fluoro-4-(2-methoxypyrimidin-5-yl)phenyl)-3-oxo-3,5,6,7,8,9-hexahydro-2H-6,9-epiminocyclohepta[c]pyridazine-10-carboxamide], the IC50 is under 500 nM.

As to `Cn1ccc2c(-c3cc(F)c(NC(=O)N4[C@H]5CC[C@@H]4c4n[nH]c(=O)cc4C5)cc3Cl)ccnc21` [Compound 282, (6S,9R)-N-(5-Chloro-2-fluoro-4-(1-methyl-1H-pyrrolo[2,3-b]pyridin-4-yl)phenyl)-3-oxo-3,5,6,7,8,9-hexahydro-2H-6,9-epiminocyclohepta[c]pyridazine-10-carboxamide], the concentration for half-maximal inhibition (IC50) is under 500 nM.

Turning to `O=C(Nc1nnc(C2CCCCC2)s1)N1[C@H]2CC[C@@H]1c1ccnc(F)c1C2` [Compound 285, (5R,8S)—N-(5-cyclohexyl-1,3,4-thiadiazol-2-yl)-1-fluoro-6,7,8,9-tetrahydro-5H-5,8-epiminocyclohepta[c]pyridine-10-carboxamide], the half-inhibitory concentration (IC50) was under 500 nM.

Take `O=C(Nc1cc(F)c(-c2ccc(C(F)(F)F)nc2)cc1F)N1[C@H]2CC[C@@H]1c1n[nH]c(=O)cc1C2` [Compound 286, (6S,9R)-N-(2,5-Difluoro-4-(6-(trifluoromethyl)pyridin-3-yl)phenyl)-3-oxo-3,5,6,7,8,9-hexahydro-2H-6,9-epiminocyclohepta[c]pyridazine-10-carboxamide]: the half-inhibitory concentration (IC50) is under 500 nM.

As for `O=C(Nc1cc(Cl)c(-c2ccc(OCCF)nc2)cc1F)N1[C@H]2CC[C@@H]1c1n[nH]c(=O)cc1C2` [Compound 291, (6S,9R)-N-(5-Chloro-2-fluoro-4-(6-(2-fluoroethoxy)pyridin-3-yl)phenyl)-3-oxo-3,5,6,7,8,9-hexahydro-2H-6,9-epiminocyclohepta[c]pyridazine-10-carboxamide], the IC50 is under 500 nM.

Turning to `O=C(Nc1cc(Cl)c(-c2ccc(OC3CC(F)(F)C3)nc2)cc1F)N1[C@H]2CC[C@@H]1c1n[nH]c(=O)cc1C2` [Compound 292, (6S,9R)-N-(5-Chloro-4-(6-(3,3-difluorocyclobutoxy)pyridin-3-yl)-2-fluorophenyl)-3-oxo-3,5,6,7,8,9-hexahydro-2H-6,9-epiminocyclohepta[c]pyridazine-10-carboxamide], the IC50 was under 500 nM.

For the molecule `O=C(Nc1cc(Cl)c(COc2ccc(F)nc2)cc1F)N1[C@H]2CC[C@@H]1c1n[nH]c(=O)cc1C2` [Compound 293, (6S,9R)-N-(5-Chloro-2-fluoro-4-(((6-fluoropyridin-3-yl)oxy)methyl)phenyl)-3-oxo-3,5,6,7,8,9-hexahydro-2H-6,9-epiminocyclohepta[c]pyridazine-10-carboxamide], the 50% inhibitory concentration (IC50) is under 500 nM.

In the case of `O=C(Nc1cc(Cl)c(Oc2ccc3nonc3c2)cc1F)N1[C@H]2CC[C@@H]1c1n[nH]c(=O)cc1C2` [Compound 294, (6S,9R)-N-(4-(Benzo[c][1,2,5]oxadiazol-5-yloxy)-5-chloro-2-fluorophenyl)-3-oxo-3,5,6,7,8,9-hexahydro-2H-6,9-epiminocyclohepta[c]pyridazine-10-carboxamide], the 50% inhibitory concentration (IC50) is under 500 nM.

As to `O=C(Nc1cc(Cl)c(C(F)(F)F)cc1F)N1[C@@H]2CC[C@H]1c1ccnc(F)c1[C@H]2F` [Compound 295, (5S,8R,9R)-N-(5-Chloro-2-fluoro-4-(trifluoromethyl)phenyl)-1,9-difluoro-6,7,8,9-tetrahydro-5H-5,8-epiminocyclohepta[c]pyridine-10-carboxamide], the IC50 is under 500 nM.

`O=C(Nc1cc(Cl)c(C(F)(F)F)cc1F)N1[C@@H]2CC[C@H]1[C@@H](F)c1c2ccnc1F` [Compound 296, (5R,8S,9S)-N-(5-Chloro-2-fluoro-4-(trifluoromethyl)phenyl)-1,9-difluoro-6,7,8,9-tetrahydro-5H-5,8-epiminocyclohepta[c]pyridine-10-carboxamide]: the IC50 was under 500 nM.

Staying with this test, now noted: 1321N1-hrGPR65 cells, cAMP HTRF, assay pH 7.2; read-out: hGPR65 IC50 (Activity of selected compounds according to the invention).
`O=C(Nc1cc(Cl)c(-c2cnccn2)cc1F)N1[C@H]2CC[C@@H]1c1n[nH]c(=O)cc1C2` [Compound 271, (6S,9R)-N-(5-Chloro-2-fluoro-4-(pyrazin-2-yl)phenyl)-3-oxo-3,5,6,7,8,9-hexahydro-2H-6,9-epiminocyclohepta[c]pyridazine-10-carboxamide]: the IC50 was in the range of 500 to 5000 nM.

Regarding `COCc1cncc(-c2cc(F)c(NC(=O)N3[C@H]4CC[C@@H]3c3n[nH]c(=O)cc3C4)cc2Cl)c1` [Compound 280, (6S,9R)-N-(5-Chloro-2-fluoro-4-(5-(methoxymethyl)pyridin-3-yl)phenyl)-3-oxo-3,5,6,7,8,9-hexahydro-2H-6,9-], the IC50 was in the range of 500 to 5000 nM.

Take `COCCOc1cnc(F)c2c1[C@H]1CC[C@@H](C2)N1C(=O)Nc1cc(Cl)c(Cl)cc1F` [Compound 283, (5R,8S)—N-(4,5-Dichloro-2-fluorophenyl)-1-fluoro-4-(2-methoxyethoxy)-6,7,8,9-tetrahydro-5H-5,8-epiminocyclohepta[c]pyridine-10-carboxamide]: the half-maximal inhibitory concentration (IC50) was in the range of 500 to 5000 nM.

These data come from US20240368173A1, “TRICYCLIC GPR65 MODULATORS” (PATHIOS THERAPEUTICS LIMITED, priority 2021, published 2024).
